Legend:
[1] = tested on: differentiated clone B4
Text: B4 cells were differentiated by growth with tet+RA for 1 day, followed by tet, high K^+, NT-3 and BDNF for 6 days.

[2] = tested on: clone E5; test: Immunoreactivity of clone E5; format: cell-based, human; settings: clone E5, after differentiation
Text: Clone E5 is an immature multi-potent cell. Clone E5 is multi-potential and likely represents an immortalized stem cell.

[3] = tested on: Human CNS Line B4; test: Effects of growth conditions on neuronal differentiation (morphology), Human CNS Line B4 (Table 3); format: cell-based; settings: clone B4, added to tet
Text: (§1) To promote further neuronal maturation the effects of additional differentiating agents on clone B4 were examined.

[4] = tested on: clone B4; test: Immunoreactivity of clone B4 (BrdU, v-myc, MAP2a/b, GFAP, tau, NR1); format: cell-based, human
Text: as §1

[5] = tested on: clone C10; test: Effects of EGF and PDGF on proliferation and survival, clone C10; format: cell-based, human; settings: EGF 40 ng/mL, PDGF 20 ng/mL
Experimental: (§2) EGF and PDGF Enhance Proliferation Rate and Cell Survival. To facilitate the expansion of the human CNS clones, we identified factors that increase the proliferation rate and/or cell survival. To examine the effects of EGF and PDGF on the proliferation and survival of the human CNS clones, 40 ng/mL EGF, 20 ng/mL PDGF or both were added to the standard growth medium, which already contained FGF-2 and 50% CM, and total cell number and BrdU uptake and incorporation were assessed as described above. For clone C2, EGF or PDGF addition increased the total cell number (FIG. 11A) by approximately 2-fold. This increase in cell number was due to enhanced cell viability (decreased cell death), since there were only slight increases in proliferation rate (assessed by BrdU uptake and incorporation, FIG. 11B). […] In the case of clone C10, EGF (but not PDGF) addition increased the total cell number (FIG. 12A) by approximately 40%. […] This increase in cell number was due, at least in part, to enhanced proliferation rates; BrdU uptake and incorporation increase about 2-fold with EGF or EGF+PDGF addition (FIG. 12B), and doubling times (based on cell counts as a function of days in vitro, data not shown) decreased from 3 days (no EGF or PDGF addition) to 2 days (EGF+PDGF addition). […]

[6] = tested on: clone C2; test: Effects of EGF and PDGF on proliferation and survival, clone C2; format: cell-based, human; settings: added to growth medium with FGF-2 and 50% CM, EGF 40 ng/mL, PDGF 20 ng/mL
Experimental: as §2

Z-Val-Ala-Asp-Ch2F [Z-VAD, reference compound]
effect on TNFα-induced increase in DNA laddering ([1]; Z-VAD at 80 μM, TNFα 10 ng/mL): blocked the increase in DNA laddering

TNFα
DNA laddering upon gel analysis ([1]; TNFα 10 ng/mL): increased DNA laddering | percentage of apoptotic nuclei ([1]; TNFα 10 ng/mL): increased | effect on neuronal viability ([1]; TNFα 0.05 or 0.2 ng/mL): little effect on neuronal viability

CN(C)[C@@H]1C(O)=C(C(N)=O)C(=O)[C@@]2(O)C(O)=C3C(=O)c4c(O)cccc4[C@@](C)(O)[C@H]3C[C@@H]12 [tetracycline]
cells stained for GFAP [2]: about 20% | cells stained for MAP2a/b [2]: about 50%

CCCCCCCCCCCCCC(=O)O[C@@H]1[C@@H](C)[C@@]2(O)[C@@H](C=C(CO)C[C@]3(O)C(=O)C(C)=C[C@@H]23)[C@@H]2C(C)(C)[C@]12OC(C)=O [PMA, phorbol 12-myristate 13-acetate]
effect on neuronal differentiation (morphology and immunocytochemical staining) [3]: prevented tet from inducing neuronal differentiation | effect on cell lineage (MAP2a/b and GFAP immunoreactivities) [4]: strongly promoted astrocytic differentiation

PDGF: human recombinant platelet derived growth factor A/B
effect on total cell number [5]: not | increase in total cell number [6]: approximately 2 fold

From patent US6713247B1, “Human CNS cell lines and methods of use therefor” (Signal Pharmaceuticials, Inc., priority 1996, dated 2004)
